≈ marks a conversion by molar mass, not a printed value.
Tests used:
Type in all cases: cell-based
[1] = test system: S. Pneumoniae 49619; experiment: MIC by microdilution (NCCLS) against S. Pneumoniae 49619; conditions: cation-adjusted Mueller-Hinton Broth, pH 7.2-7.3; for MIC: Streptococcus pneumoniae
Method: (§1) These assays have been performed following the description given in “Methods for dilution Antimicrobial Susceptibility Tests for Bacteria that Grow Aerobically, 4th ed.; Approved standard: NCCLS Document M7-A4; National Committee for Clinical Laboratory Standards Villanova, Pa., USA, 1997”. Minimal inhibitory concentrations (MICs; mg/L) were determined in cation-adjusted Mueller-Hinton Broth (BBL) by a microdilution method following NCCLS guidelines (National Committee for Clinical Laboratory Standards. Methods for Dilution Antimicrobial Susceptibility). The pH of the test medium was 7.2-7.3.

[2] = test system: S. aureus A798; experiment: MIC by microdilution (NCCLS) against S. aureus A798; conditions: pH 7.2-7.3; for MIC: Staphylococcus aureus, A798, cation-adjusted Mueller-Hinton Broth
Method: as §1

[3] = test system: M. catarrhalis A894; experiment: MIC by microdilution (NCCLS) against M. catarrhalis A894; conditions: pH 7.2-7.3; for MIC: Moraxella catarrhalis, A894, cation-adjusted Mueller-Hinton Broth
Method: as §1

[4] = cation-adjusted Mueller-Hinton Broth

Structure (SMILES)	MIC [1]	MIC [2]	MIC [3]	MIC S. Pneumoniae 49619 [1]	MIC S. aureus A798 [2, 4]	MIC M. catarrhalis A894 [3, 4]
COc1ccc2nccc(C(O)CN3CCC(C(=O)Nc4ccc5c(c4)NC(=O)CS5)CC3)c2c1 (racemic) [Example 12, (2RS)-1-[2-hydroxy-2-(6-methoxy-quinolin-4-yl)-ethyl]-piperidine-4-carboxylic acid (3-oxo-3,4-dihydro-2H-benzo[1,4]thiazin-6-yl)-amide]	2 µg/mL (≈ 4.06 µM)	1 µg/mL (≈ 2.03 µM)	0.25 µg/mL (≈ 0.508 µM)			
COc1ccc2nccc(OC[C@H]3CC[C@H](C(=O)Nc4ccc5c(c4)OCCO5)CC3)c2c1 [Example 1, trans-4-(6-methoxy-quinolin-4-yloxymethyl)-cyclohexanecarboxylic acid (2,3-dihydro-benzo[1,4]dioxin-6-yl)-amide]	0.06 µg/mL (≈ 0.134 µM)	0.06 µg/mL (≈ 0.134 µM)	0.5 µg/mL (≈ 1.11 µM)			
COc1cnc2cccc(CCC3(O)CCC(C(=O)N/C=C/c4cc(F)ccc4F)CC3)c2c1 (stereo not drawn) [Example 26, trans-4-hydroxy-4-[2-(3-methoxy-quinolin-5-yl)-ethyl]-cyclohexanecarboxylic acid [2-(2,5-difluoro-phenyl)-vinyl]-amide]				0.125 µg/mL (≈ 0.268 µM)	<0.03 µg/mL	<0.03 µg/mL
COc1ccc2nccc(CCC3(O)CCC(C(=O)N(C)c4ccc5c(c4)OCCO5)CC3)c2n1 (stereo not drawn) [Example 39, 4-hydroxy-4-[2-(6-methoxy-[1,5]naphthyridin-4-yl)-ethyl]-cyclohexanecarboxylic acid (2,3-dihydro-benzo[1,4]dioxin-6-yl)-methyl-amide]	8 µg/mL (≈ 16.8 µM)	1 µg/mL (≈ 2.09 µM)	8 µg/mL (≈ 16.8 µM)			

— patent US7888359B2, “Cyclohexyl or piperidinyl carboxamide antibiotic derivatives” (Actelion Pharmaceutical Ltd., priority 2006, dated 2011)
